From paper PMC5507300, “Antibacterial small molecules targeting the conserved TOPRIM domain of DNA gyrase” (PLoS ONE, 2017)
Entries after “also recorded” stand apart in the source; their conditions may differ.

What was measured:
E. coli DNA gyrase = target: T1, E. coli DNA gyrase (Escherichia coli, UniProt P0AES6); assay: Agarose gel DNA gyrase supercoiling assay, E. coli; format: biochemical
T1 construct: purchased New England Biolabs, Beverly, MA
Experimental: (§1) Conditions to measure the supercoiling of a relaxed, closed-circular plasmid substrate and cleavage complex stabilization in agarose gels were adapted from the literature and carried out as described below. Plasmid supercoiling reactions were assembled by combining 0.4 μL compound (in 100% DMSO), 12.5 μL H2O, 4 μL 5Xbuffer, 0.4 μL relaxed pUC19 DNA substrate (0.5 μg), […] dilute DNA gyrase (buffer, substrate, and enzyme from New England Biolabs, Beverly, MA). Alternatively the substrate pHOT-1 (TopoGEN, Buena Vista, CO) was used as noted (the substrate from New England Biolabs has been discontinued). P. aeruginosa DNA gyrase was supplied by Inspiralis, Norwich, UK. Reactions were allowed to proceed for 30 min. at 37°C after which 5 μL of stop buffer (5% sarkosyl, 25% glycerol, 1X Blue Juice [Invitrogen, Carlsbad, CA]) were added. Reactions were then extracted with 20 μL chloroform/isoamylOH (24:1) and a portion of the aqueous phase was loaded into a well in a 1% agarose/Tris-borate EDTA gel. Electrophoresis was conducted at 35 VDC until the loading dye migrated about 6.5 cm down the gel. DNA in the gel was then stained in 0.5 μg/mL ethidium bromide in water for 30 min. and rinsed (3X) in H2O. The gel was illuminated with UV light, photographed, and DNA quantitated with an Alpha Imager and accompanying software (ProteinSimple, San Jose, CA).

P. aeruginosa DNA gyrase = target: T2, P. aeruginosa DNA gyrase (Pseudomonas aeruginosa, UniProt Q9I7C2); assay: Agarose gel DNA gyrase supercoiling assay, P. aeruginosa; format: biochemical; conditions: gel-based assay, Fig 3B
T2 construct: purchased Inspiralis, Norwich, UK
Experimental: as §1, with “CA). […]” for “CA).”

[1] = tested on: DNA synthesis in E. coli JL553; assay: Macromolecule synthesis labeling; format: cell-based; conditions: E. coli JL553, 25 min exposure, labeled precursor incorporation
Experimental: Macromolecule synthesis profiling was conducted as described by Montgomery, et al. with minor modifications. E. coli strain JL553 (tolC, lysE) was used to measure inhibition of DNA, RNA, protein, peptidoglycan and phospholipid biosynthesis while E. coli MB5500 (lpxC [envA1], galE; Merck & Co., Inc., Kenilworth, NJ, USA, strain collection) was used to measure inhibition of lipopolysaccharide biosynthesis. Radioisotope labeled precursors were used at the following final concentrations [2-^14C]-thymidine (2.5 μCi/mL), [^14C(U)]-uridine (0.5 μCi/mL), L-[4, 5-^3H]-leucine (5 μCi/mL), [2-^3H]-glycerol (2 μCi/mL), [^3H]-diaminopimelic acid (3 μCi/mL), D-[1-^14C]-galactose (0.5 μCi/mL). Compound concentrations (3-fold serial dilutions) were chosen to place the minimum inhibitory concentration (see below) near the center of the dose range. Labeled cultures were incubated with compound for 25 min; stopped with trichloroacetic acid, filtered and incorporation was measured as described. Percent inhibition of incorporation was calculated relative to an untreated control culture for each labeled precursor and plotted with GraphPad Prism.

T2 sequence (Q9I7C2 whole entry): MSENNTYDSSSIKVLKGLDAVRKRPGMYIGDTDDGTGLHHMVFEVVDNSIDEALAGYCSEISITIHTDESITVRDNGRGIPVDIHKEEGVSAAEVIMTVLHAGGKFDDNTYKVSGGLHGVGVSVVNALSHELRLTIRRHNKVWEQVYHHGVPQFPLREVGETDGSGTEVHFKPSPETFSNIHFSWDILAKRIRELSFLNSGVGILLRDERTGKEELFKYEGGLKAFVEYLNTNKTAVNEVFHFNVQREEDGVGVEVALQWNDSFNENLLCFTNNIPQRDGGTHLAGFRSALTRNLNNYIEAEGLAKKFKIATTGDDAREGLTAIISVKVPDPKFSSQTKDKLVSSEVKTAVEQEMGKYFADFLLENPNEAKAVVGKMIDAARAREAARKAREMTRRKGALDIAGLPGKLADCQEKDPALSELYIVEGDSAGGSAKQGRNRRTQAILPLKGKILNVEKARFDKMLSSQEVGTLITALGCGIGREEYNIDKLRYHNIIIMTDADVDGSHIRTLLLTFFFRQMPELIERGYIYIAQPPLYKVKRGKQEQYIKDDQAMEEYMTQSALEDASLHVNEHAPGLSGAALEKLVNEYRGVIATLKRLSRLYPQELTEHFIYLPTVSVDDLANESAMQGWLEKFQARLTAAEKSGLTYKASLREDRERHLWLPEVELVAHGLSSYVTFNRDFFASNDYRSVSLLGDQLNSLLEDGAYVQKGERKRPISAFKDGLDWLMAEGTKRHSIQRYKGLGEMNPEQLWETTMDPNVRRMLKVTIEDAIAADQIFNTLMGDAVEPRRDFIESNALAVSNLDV
T2 sequence (P48372 whole entry, further chain): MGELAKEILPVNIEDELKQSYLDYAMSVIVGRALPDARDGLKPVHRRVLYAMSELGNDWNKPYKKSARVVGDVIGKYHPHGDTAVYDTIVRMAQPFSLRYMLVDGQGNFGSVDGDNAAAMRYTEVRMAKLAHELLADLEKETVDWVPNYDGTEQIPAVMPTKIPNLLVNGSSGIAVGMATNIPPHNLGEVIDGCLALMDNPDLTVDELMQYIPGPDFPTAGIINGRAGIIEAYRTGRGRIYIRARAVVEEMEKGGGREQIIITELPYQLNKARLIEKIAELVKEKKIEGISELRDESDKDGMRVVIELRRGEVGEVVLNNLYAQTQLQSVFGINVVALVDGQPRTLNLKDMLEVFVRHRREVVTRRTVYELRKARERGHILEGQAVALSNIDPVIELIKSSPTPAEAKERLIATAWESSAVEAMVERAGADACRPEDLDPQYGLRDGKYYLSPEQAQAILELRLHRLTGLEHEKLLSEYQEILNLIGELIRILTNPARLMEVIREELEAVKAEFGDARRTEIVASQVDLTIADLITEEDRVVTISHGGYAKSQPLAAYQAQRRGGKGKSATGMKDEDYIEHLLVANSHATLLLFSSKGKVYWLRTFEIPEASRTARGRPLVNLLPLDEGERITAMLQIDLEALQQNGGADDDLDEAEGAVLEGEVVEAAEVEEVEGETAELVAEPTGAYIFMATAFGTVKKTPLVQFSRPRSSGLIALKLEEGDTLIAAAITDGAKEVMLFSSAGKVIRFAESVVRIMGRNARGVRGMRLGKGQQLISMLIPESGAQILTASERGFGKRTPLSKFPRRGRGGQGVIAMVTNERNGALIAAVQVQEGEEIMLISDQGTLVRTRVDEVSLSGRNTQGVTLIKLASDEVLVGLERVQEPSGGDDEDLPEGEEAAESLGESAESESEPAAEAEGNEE

Work on `Cn1ncc2cc(-c3cnnn3C3CCN(C(=O)Nc4cc(Cl)cc(Cl)c4)CC3)ccc21` [MRL-423] yielded an IC50 (E. coli DNA gyrase) of about 7.5 µM.
For `Cn1ncc2cc(-c3nnnn3C3CCN(C(=O)Nc4ccc(Cl)c(Cl)c4)CC3)ccc21` [MRL-1082], the “activity against P. aeruginosa DNA gyrase” value (P. aeruginosa DNA gyrase) was “active”.
For `COc1ccc(C)cc1NC(=O)N1CCC(n2nncc2-c2ccc3c(cnn3C)c2)CC1` [MRL-770], the “inhibition of macromolecule synthesis” value [1] was “selective and reproducible inhibition of DNA synthesis” and the “inhibition of E. coli DNA gyrase (gel)” value (E. coli DNA gyrase; S1 Fig, pHOT-1 substrate) was “limited; also recorded: dose-dependent inhibition of enzyme activity”.
